Laboratory results reported in PubChem BioAssay (NCI).
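All cell lines were grown in 96-well plates and treated with compound for 48 hours. TGI: total growth inhibition.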

What was measured:
Assay in all cases: NCI-60 cell line screen, 48 h
[1] = test system: HOP-62 NSCLC
[2] = test system: OVCAR-8 ovarian
[3] = test system: RPMI-8226 leukemia
[4] = test system: K-562 leukemia
[5] = test system: CAKI-1 renal
[6] = test system: SW-620 colon
[7] = test system: EKVX NSCLC
[8] = test system: LOX IMVI melanoma
[9] = test system: SNB-19 CNS
[10] = test system: HL-60(TB) leukemia

Compound | TGI [1] [µM] | TGI [2] [µM] | TGI [3] [µM] | TGI [4] [µM] | TGI [5] [µM] | TGI [6] [µM] | TGI [7] [µM] | TGI [8] [µM] | TGI [9] [µM] | TGI [10] [µM]
COc1ccc2c(c1)C1Oc3ccccc3CC1(O)CO2 (configuration not stated) | > 100 | > 100 | > 100 | > 100 | > 100 | > 100 | > 100 | > 100 |  | 
OC12C3C4CC5C(C4[C@@H]1Br)C2[C@@](O)(c1c(F)c(F)c(F)c(F)c1F)C53 (some centres not stated) | > 100 | > 100 |  | 61.5 | 43.8 | > 100 | 98.9 | > 100 | > 100 | > 100
CC(C)(C)OC(=O)NC1CCCC1C(O)(C1=CCCC1)C1=CCCC1 (configuration not stated) | > 100 | > 100 | > 100 |  |  | > 100 |  | > 100 | > 100 | > 100
Cc1c(C)c2c(c(N)c1C#N)C(=O)N(OS(=O)(=O)c1ccccc1)C2=O |  | 38.6 | 37.8 | 43.4 | 51 | 47.2 | 37.4 | 55.1 | > 100 | > 100
C/C=C1\CN2CCC34c5ccccc5N(C)C35OCC4(C(=O)OC)C1CC25 (configuration not stated) | > 100 |  | > 100 | > 100 | > 100 | > 100 | > 100 | 58.3 | > 100 | 78.3
CC1(C)CC(=O)C2=C(C1)NC(SCC(=O)O)=C(C#N)C2c1ccc(Br)cc1 (configuration not stated) | > 100 | > 100 |  |  | > 100 | > 100 | > 100 | > 100 | > 100 | > 100
CCOC(O)C(F)(F)F (configuration not stated) |  | > 100 |  | > 100 |  | > 100 |  | > 100 | > 100 | > 100
COC(=O)c1c(C)ccc2c(O)c3c(cc12)C(=O)c1c2c(cc(O)c1C3=O)C1(C)OC(C)(O2)C(O)C(N(C)C)C1O (configuration not stated) | 13.4 | 2.27 |  |  | 6.32 | > 100 | 8.75 |  | 7.22 | 15.4
CC(C)=CC(C)C(C(O)CCC1(c2ccoc2)OCCO1)S(=O)(=O)c1ccccc1 (configuration not stated) | > 100 | > 100 | > 100 |  | > 100 | > 100 | > 100 | > 100 | > 100 | 
N#Cc1ccc(/C=N/NC(=O)CSCC(=O)N/N=C/c2ccc(C#N)cc2)cc1 | > 100 | > 100 | > 100 | > 100 | > 100 | > 100 | > 100 |  | > 100 | > 100
CN1c2ccccc2C(=O)NC12CCN(Cc1ccccc1)CC2 | > 100 | > 100 | > 100 |  |  | > 100 | > 100 | > 100 | > 100 | > 100
Cc1ccc(S(=O)(=O)NC(=O)NC(Cc2ccccc2)C(=O)O)cc1 (configuration not stated) | > 100 | > 100 | > 100 | > 100 |  | > 100 |  | > 100 | > 100 | > 100
CCC(C)NC(=S)N/N=C(\C)c1ccccn1 (configuration not stated) | > 25.8 | > 25.8 |  |  | > 100 | > 100 |  | > 100 | > 100 | 
c1nncn1C12C3C4C5C3C1C5C42 (configuration not stated) | > 100 | > 100 | > 100 | > 100 |  | > 100 | > 100 | > 100 | > 100 | > 100
[N-]=[N+]=NC1=NNC2(C(=O)N1)c1ccccc1-c1ccccc12 | > 100 | > 100 |  | > 100 | > 100 | > 100 | > 100 | > 100 | > 100 | > 100
CCSCC(=O)N1CCc2c([nH]c3ccccc23)C1=O | > 100 | > 100 |  | > 100 | > 100 | > 100 | > 100 | > 100 | > 100 | > 100
N#CCN1CCCCCc2ccccc21 | > 100 | > 100 | > 100 | > 100 |  | > 100 | > 100 |  | > 100 | > 100
CC1(C)C2CCC1(C)C(N/C(=C(/C(Cl)=C(Cl)Cl)[N+](=O)[O-])n1nnc3ccccc31)C2 (configuration not stated) | 67 | > 100 | > 100 |  | 37 | > 100 | > 100 | > 100 | 55.7 | 
CCOP(=O)(CC1CC(O)(CNc2cc(Cl)nc(N)n2)C1)OCC (configuration not stated) | > 100 | > 100 | > 100 | > 100 | > 100 | > 100 | > 100 | > 100 |  | > 100
O=C1c2cc([N+](=O)[O-])cnc2S(=O)(=O)N1c1ccc(Br)cc1 | > 100 | > 100 | > 100 |  | > 100 | > 100 | > 100 | > 100 | > 100 | > 100
O=c1c(/C=C/c2c(O)ccc3ccccc23)nnc2sc(-c3cccc([N+](=O)[O-])c3)nn12 | > 100 | > 100 | > 100 | > 100 | > 100 | > 100 | 79.4 | > 100 |  | 13.5
CC(=O)Nc1ccc(N2C(=O)CS(=O)(=O)C2c2cccc(Oc3ccccc3)c2)cc1 (configuration not stated) | 38.9 | 41.6 |  | 55 |  | 80.5 | 35.5 | 35.5 | 36.2 | 84.8
O=S(=O)(O)c1ccc2c(N=Nc3ccccc3)c(O)c(S(=O)(=O)O)cc2c1 | > 100 | > 100 |  | > 100 | > 100 | > 100 | > 100 |  | > 100 | > 100
O=c1[nH]c2nccnc2c2c([N+](=O)[O-])cccc12 | > 100 | > 100 | > 100 | > 100 |  | > 100 | > 100 | > 100 | > 100 | > 100
